Results as given in ChEMBL document CHEMBL1201862, “PubChem BioAssay data set” (2004).
Where “and” joins values, the source holds several entries; their conditions need not be identical. Equal values may be shown once. Where a name gives a salt, the structure may show the parent alone.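 Exposure lasted 48 hours, with cells grown in 96-well plates and compounds tested at five concentrations. GI50 is the concentration that inhibits growth by half.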 Calls of active or inactive are those of the source. No stated cut-off is given here; in the data, active = GI50 up to about 1.1 µM and inactive = higher.

Tests used:
Assay in all cases: NCI-60 cell line screen, 48 h
[1] = tested on: ACHN
[2] = tested on: DU-145
[3] = tested on: HCT-116
[4] = tested on: HCT-15
[5] = tested on: HOP-92
[6] = tested on: HT-29
[7] = tested on: M14
[8] = tested on: MDA-MB-231
[9] = tested on: NCI/ADR-RES
[10] = tested on: OVCAR-4
[11] = tested on: OVCAR-5
[12] = tested on: OVCAR-8
[13] = tested on: SK-MEL-28
[14] = tested on: SK-MEL-2
[15] = tested on: SK-MEL-5
[16] = tested on: SNB-19
[17] = tested on: SR
[18] = tested on: SW-620
[19] = tested on: TK-10
[20] = tested on: UACC-62

O=C1CSC(/C(=C\c2ccc(Cl)cc2)c2nc3ccccc3[nH]2)=N1
GI50 [1]: 6.68 µM (inactive)
GI50 [2]: 13.4 µM (inactive)
GI50 [3]: 16 µM (inactive)
GI50 [4]: 22.8 µM
GI50 [5]: 12.4 µM (inactive)
GI50 [6]: 21.7 µM (inactive)
GI50 [7]: 22.6 µM (inactive)
GI50 [8]: 12.7 µM (inactive)
GI50 [9]: 19.1 µM (inactive)
GI50 [10]: 16.1 µM (inactive)
GI50 [11]: 17 µM (inactive)
GI50 [12]: 7.91 µM (inactive)
GI50 [13]: 15.7 µM (inactive)
GI50 [14]: 17.9 µM (inactive)
GI50 [15]: 12.1 µM (inactive)
GI50 [16]: 19.2 µM (inactive)
GI50 [17]: 36.3 µM (inactive)
GI50 [18]: 18.5 µM (inactive)
GI50 [19]: 11.8 µM (inactive)
GI50 [20]: 18.7 µM (inactive)

O=C(NNCC(F)(F)F)c1ccncc1
GI50 [1]: > 100 µM (inactive)
GI50 [2]: > 100 µM (inactive)
GI50 [3]: > 100 µM (inactive)
GI50 [4]: > 100 µM
GI50 [5]: > 100 µM (inactive)
GI50 [6]: > 100 µM (inactive)
GI50 [7]: > 100 µM (inactive)
GI50 [8]: > 100 µM (inactive)
GI50 [9]: > 100 µM (inactive)
GI50 [10]: > 100 µM (inactive)
GI50 [11]: > 100 µM (inactive)
GI50 [12]: > 100 µM (inactive)
GI50 [13]: > 100 µM (inactive)
GI50 [14]: > 100 µM (inactive)
GI50 [15]: > 100 µM (inactive)
GI50 [16]: > 100 µM (inactive)
GI50 [17]: > 100 µM (inactive)
GI50 [18]: > 100 µM (inactive)
GI50 [19]: > 100 µM (inactive)
GI50 [20]: > 100 µM (inactive)

Cc1c(/N=N/c2ccc([N+](=O)[O-])cc2)nc2scc(-c3ccccc3)n12
GI50 [1]: 63.4 µM (inactive)
GI50 [2]: > 100 µM (inactive)
GI50 [3]: > 100 µM (inactive)
GI50 [4]: 31.6 µM
GI50 [5]: > 100 µM (inactive)
GI50 [6]: > 88.5 µM (inactive)
GI50 [7]: > 100 µM (inactive)
GI50 [8]: > 100 µM (inactive)
GI50 [9]: 73.1 µM (inactive)
GI50 [10]: > 100 µM (inactive)
GI50 [11]: > 66.7 µM (inactive)
GI50 [12]: 71.6 µM (inactive)
GI50 [13]: > 100 µM (inactive)
GI50 [14]: > 100 µM (inactive)
GI50 [15]: > 100 µM (inactive)
GI50 [16]: > 100 µM (inactive)
GI50 [17]: 19.5 µM (inactive)
GI50 [18]: > 80.2 µM (inactive)
GI50 [19]: > 74.6 µM (inactive)
GI50 [20]: > 65.6 µM (inactive)

C/C(=C\CNc1ncnc2c1ncn2CCC(=O)OC(C)(C)C)CO
GI50 [1]: > 100 µM (inactive)
GI50 [2]: > 100 µM (inactive)
GI50 [3]: > 100 µM (inactive)
GI50 [5]: > 100 µM (inactive)
GI50 [6]: > 100 µM (inactive)
GI50 [7]: > 100 µM (inactive)
GI50 [8]: > 100 µM (inactive)
GI50 [9]: > 100 µM (inactive)
GI50 [10]: > 100 µM (inactive)
GI50 [11]: > 100 µM (inactive)
GI50 [12]: > 100 µM (inactive)
GI50 [13]: > 100 µM (inactive)
GI50 [15]: > 100 µM (inactive)
GI50 [16]: > 100 µM (inactive)
GI50 [17]: > 100 µM (inactive)
GI50 [18]: > 100 µM (inactive)
GI50 [19]: > 100 µM (inactive)
GI50 [20]: > 100 µM (inactive)

CCOc1ncn(-c2ccc(NC(=S)Nc3cnccn3)cc2)n1
GI50 [1]: > 10 µM (inactive)
GI50 [2]: > 10 µM (inactive)
GI50 [4]: > 10 µM
GI50 [5]: > 10 µM (inactive)
GI50 [6]: > 10 µM (inactive)
GI50 [7]: > 10 µM (inactive)
GI50 [8]: > 10 µM (inactive)
GI50 [9]: > 10 µM (inactive)
GI50 [10]: > 10 µM (inactive)
GI50 [11]: > 10 µM (inactive)
GI50 [12]: > 10 µM (inactive)
GI50 [14]: > 10 µM (inactive)
GI50 [16]: > 10 µM (inactive)
GI50 [17]: > 10 µM (inactive)
GI50 [19]: > 10 µM (inactive)
GI50 [20]: > 10 µM (inactive)

COC(=O)NC(Nc1ccccn1)(C(F)(F)F)C(F)(F)F
GI50 [1]: > 100 µM (inactive)
GI50 [2]: > 100 µM (inactive)
GI50 [3]: > 100 µM (inactive)
GI50 [4]: > 100 µM
GI50 [5]: > 100 µM (inactive)
GI50 [6]: > 100 µM (inactive)
GI50 [7]: > 100 µM (inactive)
GI50 [8]: > 100 µM (inactive)
GI50 [9]: > 100 µM (inactive)
GI50 [11]: > 100 µM (inactive)
GI50 [12]: > 100 µM (inactive)
GI50 [13]: > 100 µM (inactive)
GI50 [14]: > 100 µM (inactive)
GI50 [15]: > 100 µM (inactive)
GI50 [16]: > 100 µM (inactive)
GI50 [17]: > 100 µM (inactive)
GI50 [18]: > 100 µM (inactive)
GI50 [19]: > 100 µM (inactive)
GI50 [20]: > 100 µM (inactive)

CC(=O)O/C=C\OC1CCCC1
GI50 [1]: > 100 µM (inactive)
GI50 [2]: > 100 µM (inactive)
GI50 [4]: > 100 µM
GI50 [5]: > 100 µM (inactive)
GI50 [6]: > 100 µM (inactive)
GI50 [7]: > 100 µM (inactive)
GI50 [8]: > 100 µM (inactive)
GI50 [9]: > 100 µM (inactive)
GI50 [10]: > 100 µM (inactive)
GI50 [12]: > 100 µM (inactive)
GI50 [13]: > 100 µM (inactive)
GI50 [14]: > 100 µM (inactive)
GI50 [15]: > 100 µM (inactive)
GI50 [16]: > 100 µM (inactive)
GI50 [17]: > 100 µM (inactive)
GI50 [18]: > 100 µM (inactive)
GI50 [19]: > 100 µM (inactive)
GI50 [20]: > 100 µM (inactive)

O=C(Cn1c(C(=O)/C=C/c2ccc(Cl)cc2)nc2ccccc21)c1ccc(Cl)cc1
GI50 [1]: 20.7 µM (inactive)
GI50 [2]: 21.7 µM (inactive)
GI50 [3]: 10.9 µM (inactive)
GI50 [4]: 15.3 µM
GI50 [5]: 34.3 µM (inactive)
GI50 [6]: 15 µM (inactive)
GI50 [7]: 18.1 µM (inactive)
GI50 [8]: 19.9 µM (inactive)
GI50 [9]: 20.5 µM (inactive)
GI50 [10]: 13.4 µM (inactive)
GI50 [11]: 26.8 µM (inactive)
GI50 [13]: 21.7 µM (inactive)
GI50 [14]: 17.6 µM (inactive)
GI50 [15]: 14.8 µM (inactive)
GI50 [16]: 20.7 µM (inactive)
GI50 [17]: 4.25 µM (inactive)
GI50 [18]: 11.4 µM (inactive)
GI50 [19]: 30.8 µM (inactive)
GI50 [20]: 15.8 µM (inactive)

Cc1ccc(S(=O)(=O)Nc2nnc(S(N)(=O)=O)s2)cc1
GI50 [1]: > 100 µM (inactive)
GI50 [2]: > 100 µM (inactive)
GI50 [3]: > 100 µM (inactive)
GI50 [4]: > 100 µM
GI50 [5]: > 100 µM (inactive)
GI50 [7]: > 100 µM (inactive)
GI50 [8]: > 100 µM (inactive)
GI50 [9]: > 100 µM (inactive)
GI50 [10]: > 100 µM (inactive)
GI50 [11]: > 100 µM (inactive)
GI50 [12]: > 100 µM (inactive)
GI50 [13]: > 100 µM (inactive)
GI50 [14]: > 100 µM (inactive)
GI50 [15]: > 100 µM (inactive)
GI50 [16]: > 100 µM (inactive)
GI50 [17]: > 100 µM (inactive)
GI50 [18]: > 100 µM (inactive)
GI50 [19]: > 100 µM (inactive)
GI50 [20]: > 100 µM (inactive)

CC(NC(=O)C(N)Cc1ccc(O)cn1)C(=O)O (stereo not given)
GI50 [1]: > 100 µM (inactive)
GI50 [2]: > 100 µM (inactive)
GI50 [3]: > 100 µM (inactive)
GI50 [4]: > 100 µM
GI50 [5]: > 100 µM (inactive)
GI50 [6]: > 100 µM (inactive)
GI50 [8]: > 100 µM (inactive)
GI50 [9]: > 100 µM (inactive)
GI50 [10]: > 100 µM (inactive)
GI50 [11]: > 100 µM (inactive)
GI50 [12]: > 100 µM (inactive)
GI50 [13]: > 100 µM (inactive)
GI50 [15]: > 100 µM (inactive)
GI50 [16]: > 100 µM (inactive)
GI50 [17]: > 100 µM (inactive)
GI50 [18]: > 100 µM (inactive)
GI50 [19]: > 100 µM (inactive)

CN(C)CCCN1c2ccccc2Sc2ccc(C(F)(F)F)cc21 [TRIFLUPROMAZINE HYDROCHLORIDE]
GI50 [1]: 14.9 µM (inactive) and 15.4 µM (inactive)
GI50 [2]: 17.2 µM (inactive)
GI50 [3]: 14.2 µM (inactive) and 14.4 µM (inactive)
GI50 [4]: 17.1 µM and 16.1 µM
GI50 [5]: 12.3 µM (inactive)
GI50 [6]: 11.4 µM (inactive)
GI50 [8]: 12.9 µM (inactive)
GI50 [9]: 17.2 µM (inactive)
GI50 [10]: 14.8 µM (inactive)
GI50 [11]: 17.1 µM (inactive)
GI50 [12]: 15.6 µM (inactive)
GI50 [13]: 16.3 µM (inactive) and 14.8 µM (inactive)
GI50 [14]: 16 µM (inactive)
GI50 [15]: 17.4 µM (inactive)
GI50 [16]: 16.6 µM (inactive) and 15 µM (inactive)
GI50 [17]: 18.1 µM (inactive) and 17.6 µM (inactive)
GI50 [18]: 15.8 µM (inactive) and 17.2 µM (inactive)
GI50 [19]: 17.4 µM (inactive) and 15.2 µM (inactive)
GI50 [20]: 16.6 µM (inactive) and 16.8 µM (inactive)
